Here are results for 21 compounds from patent publication US20130244999A1, “Substituted Heterocyclic Compounds” (Incyte Corporation, priority 2008, published 2013).

The target in one test is T1, histamine H4 receptor (Homo sapiens, UniProt Q9H3N8).
T1 construct: expressed in transfected cells; host or cells: HEK293SFM cells (membrane preparation)
T1 sequence (Q9H3N8 whole entry): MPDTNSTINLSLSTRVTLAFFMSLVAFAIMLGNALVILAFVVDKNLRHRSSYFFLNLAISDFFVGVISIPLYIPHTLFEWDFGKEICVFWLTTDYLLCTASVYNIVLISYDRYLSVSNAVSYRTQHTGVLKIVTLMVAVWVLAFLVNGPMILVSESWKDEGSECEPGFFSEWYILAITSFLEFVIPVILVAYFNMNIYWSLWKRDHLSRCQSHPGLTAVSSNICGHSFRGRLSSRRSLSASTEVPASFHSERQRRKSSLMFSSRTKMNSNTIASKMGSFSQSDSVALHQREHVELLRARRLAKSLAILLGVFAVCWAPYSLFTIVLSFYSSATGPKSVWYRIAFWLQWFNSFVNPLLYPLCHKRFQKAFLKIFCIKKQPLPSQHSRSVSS
Put plainly: Inhibition of histamine H4 receptor (Table A1; H4 membrane binding assay).
Details: not given
On the procedure:
Recombinant HEK293SFM cells expressing human H1, H2, H3, H4 or mouse H4 were harvested (Packard Filtermate Harvester) in ice-cold Tris-HCl, (50 mM, pH 7.5, Sigma) with protease inhibitors (Roche) and homogenized with a Polytron homogenizer. The homogenate was centrifuged for 5 minutes at 1000 g to remove nuclei and unbroken cells. The supernatant was centrifuged at 50000 g for 30 minutes, and the resulting pellet was re-suspended in ice-cold Tris-HCl (50 mM, pH 7.5). […] Nonspecific binding was determined by inclusion of 1000× unlabeled ligands. The bound radioactivity was separated by filtration through polyethyleneimine-treated GF/B filters (Perkin Elmer). The filters were washed eight times with ice-cold Tris-HCl (50 mM, pH 7.5), and radioactivity retained on the filters was measured by liquid scintillation counting. The binding data were evaluated with Prism. […]
Turning to `CC1Cc2ccc(-c3ccc(C(=O)N4CCCC4)nc3)cc2CN1c1cc(N2CCN(C)CC2)nc(N)n1` (single isomer, unassigned) [Example 55B, 4-(4-methylpiperazin-1-yl)-6-[3-methyl-7-[6-(pyrrolidin-1-ylcarbonyl)pyridin-3-yl]-3,4-dihydroisoquinolin-2(1H)-yl]pyrimidin-2-amine], 1 µM produced 65% inhibition.

Staying with this test, now noted: histamine H4 receptor; "> a" = exceeds experiment limit.
The compound `CC1Cc2ccc(-c3ccc(C(=O)N4CC[C@@H](O)C4)nc3)cc2CN1c1cc(N2CCN(C)CC2)nc(N)n1` (single isomer, unassigned) [Example 56A] gave an IC50 of 85 nM.

For `CC1Cc2ccc(-c3ccc(C(=O)N4CC[C@@H](O)C4)nc3)cc2CN1c1cc(N2CCN(C)CC2)nc(N)n1` (single isomer, unassigned) [Example 56B], the IC50 amounted to 172 nM.

`CC1Cc2ccc(-c3ccc(C(=O)N4CC(O)C4)nc3)cc2CN1c1cc(N2CCN(C)CC2)nc(N)n1` (single isomer, unassigned) [Example 60, 1-[(5-{2-[2-Amino-6-(4-methylpiperazin-1-yl)pyrimidin-4-yl]-3-methyl-1,2,3,4-tetrahydroisoquinolin-7-yl}pyridin-2-yl)carbonyl]azetidin-3-ol] yielded an IC50 of 130 nM.

`CC1Cc2ccc(-c3ccnc(C(=O)N(C)C)c3)cc2CN1c1cc(N2CCN(C)CC2)nc(N)n1` (single isomer, unassigned) [Example 61A, 4-{2-[2-amino-6-(4-methylpiperazin-1-yl)pyrimidin-4-yl]-3-methyl-1,2,3,4-tetrahydroisoquinolin-7-yl}-N,N-dimethylpyridine-2-carboxamide] displayed an IC50 of 110 nM.

Regarding `CC1Cc2ccc(-c3ccnc(C(=O)N(C)C)c3)cc2CN1c1cc(N2CCN(C)CC2)nc(N)n1` (single isomer, unassigned) [Example 61B, 4-{2-[2-amino-6-(4-methylpiperazin-1-yl)pyrimidin-4-yl]-3-methyl-1,2,3,4-tetrahydroisoquinolin-7-yl}-N,N-dimethylpyridine-2-carboxamide], the IC50 was 64 nM.

`CC1Cc2ccc(-c3ccnc(C(=O)N4CCC4)c3)cc2CN1c1cc(N2CCN(C)CC2)nc(N)n1` (single isomer, unassigned) [Example 62A, 4-[7-[2-(azetidin-1-ylcarbonyl)pyridin-4-yl]-3-methyl-3,4-dihydroisoquinolin-2 (1H)-yl]-6-(4-methylpiperazin-1-yl)pyrimidin-2-amine]: the IC50 is 46 nM.

Turning to `CC1Cc2ccc(-c3ccnc(C(=O)N4CCC4)c3)cc2CN1c1cc(N2CCN(C)CC2)nc(N)n1` (single isomer, unassigned) [Example 62B, 4-[7-[2-(azetidin-1-ylcarbonyl)pyridin-4-yl]-3-methyl-3,4-dihydroisoquinolin-2(1H)-yl]-6-(4-methylpiperazin-1-yl)pyrimidin-2-amine], the IC50 was 49 nM.

As for `CC1Cc2ccc(-c3ccnc(C(=O)N4CC(C#N)C4)c3)cc2CN1c1cc(N2CCN(C)CC2)nc(N)n1` (single isomer, unassigned) [Example 63A, 1-[(4-{2-[2-amino-6-(4-methylpiperazin-1-yl)pyrimidin-4-yl]-3-methyl-1,2,3,4-tetrahydroisoquinolin-7-yl}pyridin-2-yl)carbonyl]azetidine-3-carbonitrile], the IC50 was determined as 44 nM.

The compound `CC1Cc2ccc(-c3ccnc(C(=O)N4CC(C#N)C4)c3)cc2CN1c1cc(N2CCN(C)CC2)nc(N)n1` (single isomer, unassigned) [Example 63B, 1-[(4-{2-[2-amino-6-(4-methylpiperazin-1-yl)pyrimidin-4-yl]-3-methyl-1,2,3,4-tetrahydroisoquinolin-7-yl}pyridin-2-yl)carbonyl]azetidine-3-carbonitrile] registered an IC50 of 47 nM.

`CC1Cc2ccc(-c3ccnc(C(=O)N4CCCC4)c3)cc2CN1c1cc(N2CCN(C)CC2)nc(N)n1` (single isomer, unassigned) [Example 64A, 4-(4-methylpiperazin-1-yl)-6-[3-methyl-7-[2-(pyrrolidin-1-ylcarbonyl)pyridin-4-yl]-3,4-dihydroisoquinolin-2(1H)-yl]pyrimidin-2-amine] gave an IC50 of 116 nM. This IC50 lies about 2.5-fold higher than the previous one.

`CC1Cc2ccc(-c3ccnc(C(=O)N4CCCC4)c3)cc2CN1c1cc(N2CCN(C)CC2)nc(N)n1` (single isomer, unassigned) [Example 64B, 4-(4-methylpiperazin-1-yl)-6-[3-methyl-7-[2-(pyrrolidin-1-ylcarbonyl)pyridin-4-yl]-3,4-dihydroisoquinolin-2(1H)-yl]pyrimidin-2-amine] displayed an IC50 of 86 nM.

On to `CC1Cc2ccc(-c3ccnc(C(=O)N4CC[C@H](O)C4)c3)cc2CN1c1cc(N2CCN(C)CC2)nc(N)n1` (single isomer, unassigned) [Example 65A], for which the IC50 is 107 nM.

Regarding `CC1Cc2ccc(-c3ccnc(C(=O)N4CC[C@H](O)C4)c3)cc2CN1c1cc(N2CCN(C)CC2)nc(N)n1` (single isomer, unassigned) [Example 65B], the IC50 was determined as 79 nM.

For the compound `CC1Cc2ccc(-c3ccnc(C(=O)N4CC[C@H](F)C4)c3)cc2CN1c1cc(N2CCN(C)CC2)nc(N)n1` (single isomer, unassigned) [Example 66A], the IC50 was determined as 64 nM.

Take `CC1Cc2ccc(-c3ccnc(C(=O)N4CC[C@H](F)C4)c3)cc2CN1c1cc(N2CCN(C)CC2)nc(N)n1` (single isomer, unassigned) [Example 66B]: the IC50 is 57 nM. This IC50 and that of the compound before are within 1.5-fold of each other.

The compound `CC1Cc2ccc(-c3ccnc(C(=O)N4CCC(N(C)C)C4)c3)cc2CN1c1cc(N2CCN(C)CC2)nc(N)n1` (single isomer, unassigned) [Example 67A, 4-[7-(2-{[3-(dimethylamino)pyrrolidin-1-yl]carbonyl}pyridin-4-yl)-3-methyl-3,4-dihydroisoquinolin-2(1H)-yl]-6-(4-methylpiperazin-1-yl)pyrimidin-2-amine] yielded an IC50 of 56 nM.

In the case of `CC1Cc2ccc(-c3ccnc(C(=O)N4CCC(N(C)C)C4)c3)cc2CN1c1cc(N2CCN(C)CC2)nc(N)n1` (single isomer, unassigned) [Example 67B, 4-[7-(2-{[3-(dimethylamino)pyrrolidin-1-yl]carbonyl}pyridin-4-yl)-3-methyl-3,4-dihydroisoquinolin-2(1H)-yl]-6-(4-methylpiperazin-1-yl)pyrimidin-2-amine], the concentration for half-maximal inhibition (IC50) was determined as 50 nM.

For the compound `CC1Cc2ccc(-c3ccnc(C(=O)N(C)CCN(C)C)c3)cc2CN1c1cc(N2CCN(C)CC2)nc(N)n1` (single isomer, unassigned) [Example 68A, 4-{2-[2-amino-6-(4-methylpiperazin-1-yl)pyrimidin-4-yl]-3-methyl-1,2,3,4-tetrahydroisoquinolin-7-yl}-N-[2-(dimethylamino)ethyl]-N-methylpyridine-2-carboxamide], the IC50 came out at 30 nM.

The compound `CC1Cc2ccc(-c3ccnc(C(=O)N(C)CCN(C)C)c3)cc2CN1c1cc(N2CCN(C)CC2)nc(N)n1` (single isomer, unassigned) [Example 68B, 4-{2-[2-amino-6-(4-methylpiperazin-1-yl)pyrimidin-4-yl]-3-methyl-1,2,3,4-tetrahydroisoquinolin-7-yl}-N-[2-(dimethylamino)ethyl]-N-methylpyridine-2-carboxamide] gave a half-maximal inhibitory concentration (IC50) of 32 nM. The IC50 values of the last two compounds are within 1.5-fold of each other.

Turning to `CC1Cc2ccc(-c3ccnc(C(=O)N[C@H](C)CO)c3)cc2CN1c1cc(N2CCN(C)CC2)nc(N)n1` (single isomer, unassigned) [Example 69], the IC50 was 66 nM. Against the preceding compound, the IC50 is about 2.1-fold higher.

The term inhibition denotes the percentage by which the read-out fell short of the control. Read a high inhibition as strong suppression. Usually IC50 stands for the concentration needed to halve the response being measured. A low value points to inhibition by little substance.
